Assay results: PubChem BioAssay (NCI)
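In this assay, cells in 96-well plates receive the compound at five concentrations for 48 hours. Endpoints are linearly interpolated between the surrounding concentrations. At the TGI there is no net growth.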

Assays:
Experiment in all cases: DTP human tumour cell line panel, 48 h
OVCAR-3 ovarian = system: OVCAR-3 ovarian
U251 CNS = system: U251 CNS
SF-268 CNS = system: SF-268 CNS
A549 NSCLC = system: A549 NSCLC
SF-539 CNS = system: SF-539 CNS
SNB-75 CNS = system: SNB-75 CNS
HCT-116 colon = system: HCT-116 colon
MDA-N = system: MDA-N
NCI-H522 lung = system: NCI-H522 lung

| SMILES | TGI (OVCAR-3 ovarian) | TGI (U251 CNS) | TGI (SF-268 CNS) | TGI (A549 NSCLC) | TGI (SF-539 CNS) | TGI (SNB-75 CNS) | TGI (HCT-116 colon) | TGI (MDA-N) | TGI (NCI-H522 lung) |
| --- | --- | --- | --- | --- | --- | --- | --- | --- | --- |
| O=C1C=CC=C/C1=C1\N=C(c2ccccc2OCC(=O)c2ccccc2)SS1 | > 100 µM | > 100 µM | > 100 µM | > 100 µM | > 100 µM | 65.8 µM | > 100 µM | > 100 µM |  |
| COC(=O)C1C(C(=O)OC)C2(OC(c3ccc(Cl)cc3)=CC2=O)C12OC(c1ccc(Cl)cc1)=CC2=O (centres undefined) | 42 µM | > 100 µM | 73.5 µM | > 100 µM | 39.2 µM |  | 30.4 µM | 47.3 µM | 36.1 µM |
| CC(C)C(=O)C(C)(C)CCc1ccccn1 | > 100 µM | > 100 µM | > 100 µM | > 100 µM |  | > 100 µM | > 100 µM | > 100 µM | > 100 µM |
| COc1cccc2c1C(=O)c1c(O)c3c(c(O)c1C2=O)C[C@H](O)C[C@@H]3OC1CC(N)C(O)C(C)O1 (some centres undefined) | 7.34 µM |  | 10.6 µM | 14.1 µM | 11.2 µM | 15.3 µM | 7.88 µM |  | 5.86 µM |
| C=C1C(OC2O[C@@H]3O[C@@]4(C)CC[C@H]5[C@H](C)CC[C@@H](C2=C)[C@@]35O4)O[C@@H]2O[C@@]3(C)CC[C@H]4[C@H](C)CC[C@@H]1[C@@]24O3 (some centres undefined) | > 50 µM | > 50 µM | > 50 µM | > 50 µM | > 50 µM |  | > 50 µM | > 50 µM | > 50 µM |
| COc1ccc(C2C3=C(COC3=O)Oc3cc4c(cc32)OCO4)c(OC)c1 (centres undefined) | 58.7 µM | > 100 µM | > 100 µM | > 100 µM | 43.6 µM | 46.8 µM | > 100 µM |  |  |
| O=C(OCCN=c1c2ccccc2ccc2ccccc12)c1ccccc1 | > 100 µM | > 100 µM | > 100 µM | > 100 µM | > 100 µM | > 100 µM | > 100 µM | > 100 µM |  |
| O=C(/C=C/C(=O)N1CCCC1)N1CCCC1 | > 100 µM | > 100 µM | > 100 µM | > 100 µM | > 100 µM |  | > 100 µM | > 100 µM | > 100 µM |
| O=C1NC2CCCCC2N=C1CC(=O)c1ccc(Br)cc1 (centres undefined) | > 100 µM | > 100 µM | > 100 µM | > 100 µM | > 100 µM |  | > 100 µM | > 100 µM | > 100 µM |
| COc1ccccc1CN=C1Nc2ccncc2S(=O)(=O)N1c1ccccc1 | > 100 µM | > 100 µM |  | > 100 µM |  |  | > 100 µM |  | > 100 µM |
| CO[C@H]1SC[C@H](OC(C)=O)[C@H](OC(C)=O)[C@H]1OC(C)=O | > 100 µM | > 100 µM | > 100 µM | > 100 µM | > 100 µM |  | > 100 µM | > 100 µM | > 100 µM |
| O=S(=O)(c1cc(Cl)ccc1Cl)n1ccnc1 | > 100 µM | > 100 µM | > 100 µM | > 100 µM | 39.3 µM | > 100 µM | > 100 µM |  | > 100 µM |
| CN(C)CCCNC(=O)c1cc(NC(=O)c2cc(NC(=O)CCCn3c4ccccc4c4ccccc43)cn2C)cn1C | > 72.5 µM | > 62.2 µM | 41.6 µM | > 67.7 µM | 62.6 µM | 39.1 µM | 13.8 µM |  | > 90.6 µM |
| N#CC1(O)CCCCCCCCCCC1 | > 100 µM | > 100 µM | > 100 µM | > 100 µM | > 100 µM |  | > 100 µM | > 100 µM | > 100 µM |
| CSc1nc(NC(C)C)c2c(n1)Sc1nc3ccccc3n1N=C2 | 25.1 µM | 29.9 µM | > 100 µM | 38.6 µM |  |  | 21.5 µM | > 100 µM | 50.5 µM |
| Cc1cc(S(=O)(=O)/N=C(/C(=C=[N-])C#N)[n+]2ccc(N(C)C)cc2)c(SCC(=O)O)cc1Cl | > 100 µM | > 100 µM | > 100 µM | > 100 µM | > 100 µM |  | > 100 µM | > 100 µM | > 100 µM |
| CN(C)CC1CCC/C(=C\c2ccc(OC(=O)c3ccc(Cl)cc3)cc2)C1=O (centres undefined) | 3.36 µM | 3.08 µM | 9.07 µM | 7.26 µM | 5.41 µM | 9.16 µM | 2.23 µM | 7.45 µM |  |
| Cc1c(CN2CCN(C)CC2)c(CN2CCN(C)CC2)c(C)n1-c1ccc(Cl)cc1 | > 100 µM | > 100 µM | > 100 µM | 91.1 µM |  | 88.4 µM | > 100 µM | 58.5 µM | 40.8 µM |
| COc1ccc(Nc2nc(N)c(C(=O)c3c[nH]c4ccccc34)s2)cc1 | 4.14 µM | > 100 µM | > 100 µM | > 61.3 µM | > 36.9 µM | 6.56 µM | 6.58 µM | 0.878 µM |  |
| O=C(CCc1cc(O)cc(O)c1)NCCCNC(=O)CCc1cc(O)cc(O)c1 | > 100 µM | > 100 µM | > 100 µM | > 100 µM | > 100 µM |  | > 100 µM | > 100 µM | > 100 µM |
| CS(=O)(=O)Nc1ccc2c(c1)N(S(C)(=O)=O)CC2CCl (centres undefined) | > 100 µM | > 100 µM | > 100 µM | > 100 µM | > 100 µM | > 100 µM | > 100 µM |  | > 100 µM |
| O=c1nc2c(c(-c3ccc(Br)cc3)[nH]1)COC/C2=C\c1ccc(Br)cc1 | > 50 µM | > 50 µM | > 50 µM |  | > 50 µM | > 50 µM | > 50 µM | > 50 µM | > 50 µM |
| COC(=O)C1(CCCCCBr)CCCCCCCCCCC1=O (centres undefined) | > 100 µM | > 100 µM | > 100 µM | > 100 µM | > 100 µM |  | > 100 µM | > 100 µM | 47.5 µM |
| C=C1OC(c2ccccc2NC)=NC12CCCCC2 | > 100 µM | > 100 µM | > 100 µM | > 100 µM | > 100 µM |  | > 100 µM | > 100 µM | > 100 µM |
| O=C1C=CC(=O)N1n1c(-c2ccccc2)n[nH]c1=O | > 100 µM | > 100 µM | > 100 µM | > 100 µM | > 100 µM |  | > 100 µM | > 100 µM | > 100 µM |
